From US11191850B2, “Molecular probes for detection and imaging of pancreatic cancer” (Portland State University, priority 2016, dated 2021)
Values joined by “and” are separate entries in the source; they are usually repeats but may differ in a detail not shown here. Equal values may be shown once. “Also recorded” adds a separate entry of the source. One block for each molecule: values may come before it.

Key:
[1] = pKa of ionizable fluorophores (pH sensitivity screening); type: physicochemical; settings: aqueous solutions with 10% DMSO
Description: (§1) Probes 1-13 were screened for pH and solvent sensitivity. Solvent sensitivity or dependence is at least partially attributable to differences in the equilibria between tautomeric forms of the compounds in the various solvents evaluated. The fluorophore concentrations ranged from 10-15 μM. Aqueous solutions contained 10% DMSO and 12.5 mM HCl, 12.5 mM NaOH, or pH 7.4 phosphate buffer.

[2] = UV-Vis absorption and fluorescence spectroscopy; type: physicochemical; design: Brightness: unit not given here; settings: for pH and solvent sensitivity of UV and fluorescence spectra: 10-15 μM, aqueous 10% DMSO with HCl, NaOH or pH 7.4 buffer, various solvents; for Extinction coefficient / λmax abs: 10% DMSO
From the text: UV-Vis absorption and fluorescence spectroscopy. UV-Vis spectra were collected with a Cary 50 UV-Vis spectrophotometer at room temperature, using a 1-cm quartz cuvette. Fluorescence spectra were collected on a Cary Eclipse fluorescence spectrophotometer (Agilent Technologies). All absorbance spectra were reference corrected. Fluorescence spectra were corrected for the wavelength dependent response of the R928 photomultiplier tube using a manufacturer generated correction file. Quantum yields are reported as the average of multiple measurements using multiple references. Excitation emission matrices (EEMs) were collected over various spectral regions, using 5-nm step sizes for emission and 10-nm step sizes for excitation. The band pass for excitation and emission was 5 to 10 nm.
as §1

[3] = tested on: Capan-1 cells; assay: In vitro time-dependent fluorophore uptake; type: cell-based, human; settings: Capan-1, 10 μM
Description: Cell culture. The human PDAC cell line Capan-1 was obtained from Dr. Rosalie Sears' laboratory and maintained in RPMI medium (Gibco) in a humid atmosphere at 37° C. with 5% CO2. All media were supplemented with 10% (v/v) fetal bovine serum (FBS), and 1% (v/v) penicillin/streptomycin. The cell viability was determined by Cell Titer-Blue® assay (Promega Corporation). Monolayers of 10^4 Capan-1 cells were seeded in triplicate in 96 well plates and incubated with decreasing concentration from 100 μM of each compound in growth media containing 10% FBS. After 24 h incubation time, 20 μL of CellTiter-Blue® reagent was added into each well, and culture cells were incubated for additional 2 h. Fluorescence intensity in each well was recorded at 560/590 nm in a SpectraMax® M5 Microplate Reader (Molecular Devices, LLC). The half maximal inhibitory concentration (IC50) of these three compounds were determined from interpolating values in the graph (% cell viability vs. fluorophore concentration). For comparison of cellular uptake rate in Capan-1 cells, absorbance of media was measured as background, and absorbance of supernatant was obtained to determine the cellular uptake by using absorbance of 10 μM fluorophore in cell free media as standard reference.
In vitro time-dependent fluorophore uptake was also investigated in Capan-1 cells. […]

[4] = tested on: Capan-1 cells; assay: Subcellular localization by live cell imaging with organelle trackers; type: cell-based, human; settings: Capan-1, 0.5 μM, 1 h incubation
Description: In vitro live cell imaging. Monolayers of 10^4 Capan-1 cells were seeded in triplicate in 8 well plates and incubated for 24 h in growth media containing 10% FBS and allowed to attach. For subcellular colocalization experiments, media was extracted and cells were washed with PBS, and phenol red-free growth medium was added to each well. Organelle trackers were added to each well, and incubated with the compound (final concentration 0.5 μM) of interest for 1 h. Cells were then washed with PBS and then fixed with 2% paraformaldehyde (PFA). Fluorescence microscopy was carried out using a Zeiss inverted microscope with an Axioscan fluorescence camera for imaging. Final concentration of organelle trackers used in this experiments, DAPI (4,6-diamidino-2-phenylindole) 0.5 μM, MitoTracker® Green (benzoxazolium 2-[3-[5,6-dichloro-1,3-bis[[4-(chloromethyl)-phenyl]methyl]-1,3-dihydro-2H-benzimidazol-2-ylidene]-1-propenyl]-3-methyl-chloride 201860-17-5v, ThermoFisher Scientific) 0.5 μM, and ER-Tracker™ Green (BODIPY® FL dye and glibenclamide; ThermoFisher Scientific) 1 μM.
The subcellular localization of 2, 12 and 13 was investigated in Capan-1 cells after 1 h incubation time. […] FIGS. 6A, 7A, and 8A show the red fluorescence of the three compounds, respectively, as well as blue fluorescence with DAPI (4,6-diamidino-2-phenylindole) FIGS. 6C, 7C, 8C) and green fluorescence with organelle-specific fluorescent probes—ER-Tracker™ Green (BODIPY® FL dye and glibenclamide; ThermoFisher Scientific) (FIGS. 6E, 7E, 8E) and MitoTracker® Green (benzoxazolium 2-[3-[5,6-dichloro-1,3-bis[[4-(chloromethyl)-phenyl]methyl]-1,3-dihydro-2H-benzimidazol-2-ylidene]-1-propenyl]-3-methyl-chloride201860-17-5v; ThermoFisher Scientific) (FIGS. 6G, 7G, 8G). Also shown are composite overlays of (i) phase contrast+compound fluorescence (FIGS. 6B, 7B, 8B), (ii) DAPI+compound fluorescence (FIGS. 6D, 7D, 8D), (iii) DAPI+ER-Tracker™ Green+compound fluorescence (FIGS. 6F, 7F, 8F), and (iv) DAPI+MitoTracker® Green+compound fluorescence (FIGS. 6H, 7H, 8H).

[5] = tested on: healthy CD-1 mice; assay: In vivo biodistribution imaging after systemic administration
Description: Animals. Approval for the use of all animals in this study was obtained from the Institutional Animal Care and Use Committee (IACUC) at Oregon Health and Science University (OHSU). Male CD-1 mice weighing 22-24 g were purchased from Charles River Laboratories (Wilmington, MA). […] All animals were placed on 5V75 chlorophyll free diet from TestDiet (St. Louis, Mo.) 1 week prior to any imaging studies. Prior to surgery, mice were anaesthetized with 100 mg/kg ketamine and 10 mg/kg xylazine (Patterson Veterinary, Devens, Mass.). The peritoneal cavity was surgically exposed by removal of overlaying skin and muscle tissue to image fluorophore biodistribution following intravenous injection.
Intraoperative fluorescence imaging system. In vivo murine biodistribution images and macroscopic images of resected tissues were acquired using a custom-built small animal imaging system capable of real time color and fluorescence imaging. The imaging system consists of a QImaging EXi Blue monochrome camera (Surrey, British Columbia, Calif.) for fluorescence detection with a removable Bayer filter for collecting co-registered color and fluorescence images. A PhotoFluor II light source (89 North, Burlington, Vt.) was focused onto the surgical field through a liquid light guide and used unfiltered for white light illumination. […] All filters were obtained from Chroma technology (Bellows Falls, Vt.). Camera exposure times ranged from 50 to 200 ms for fluorescence image collection.
Systemic administration of fluorescent compounds. […] Fluorophores were diluted in PBS. For comparison with previous studies, 120 nmol Methylene Blue was injected systemically. Mice were administered blank PBS for control images (n=3 mice per group, 5 groups).
In vivo biodistribution imaging. […] The peritoneal cavity was exposed and images were collected so that the bladder, adipose tissue, intestine, kidney, liver, muscle, pancreas, spleen, and stomach were visible within the field of view. For initial biodistribution studies images were collected immediately after injection and at 5, 15, 30, 60, 120, and 240 min following injection. […] Vehicle injected control animals were imaged on the same time course as fluorophore injected animals for initial testing or immediately following injection only for studies involving MB or PDAC tumor bearing mice to assess tissue autofluorescence for comparison to injected animals.
Fluorophore biodistribution kinetics were measured using region of interest analysis on images collected of the peritoneal cavity. Mean fluorescence intensities in each organ or tissue type were measured from images collected at each time point. All intensities were normalized to the muscle intensity at that time point by dividing by the measured muscle intensity. Using the normalized fluorescence intensities for each organ or tissue type, mean intensities were calculated for each group.
Upon completion of initial biodistribution studies, animals were euthanized and their organs were resected.

[6] = acidic solution pH 1.9, HCl, excited at 480 nm or 510 nm
[7] = conjugate base, basic solution pH 12.1, NaOH
[8] = conjugate base, pH 12.1, NaOH, excited at 630 nm
[9] = pH 7.4 phosphate buffer, methyl ether derivatives
[10] = basic solution pH 12.1, NaOH, 15 μM
[11] = conjugate acid, acidic solution pH 1.9, HCl, 15 μM
[12] = pH 7.4 buffer, excited at 630 nm
[13] = pH 7.4 buffer, seminaphthorhodamines
[14] = pH 7.4 phosphate buffer, seminaphthorhodamines
[15] = pH 7.4 buffer, excited at 480 nm
[16] = pH 7.4 buffer, methyl ether derivatives

SMILES: COC(=O)c1ccccc1C1=c2cc3c4c(c2Oc2c1ccc1cccc(O)c21)CCC[N+]=4CCC3 [Compound 11, 15-hydroxy-9-(2-(methoxycarbonyl)phenyl)-1,2,3,5,6,7-hexahydrobenzo[7,8]chromeno[2,3-f]pyrido[3,2,1-ij]quinolin-4-ium chloride]
- pKa ([1]; Table 1): 7.84 +/− 0.11
- pH and solvent sensitivity of UV and fluorescence spectra [2]: exhibit pH as well as solvent sensitivity
- Brightness ([2]; acidic solution pH 1.9, HCl): 2314
- Stokes shift ([2]; acidic solution pH 1.9, HCl): 39 nm
- Extinction coefficient ([2]; acidic solution pH 1.9, HCl): 15134 M⁻¹ cm⁻¹
- λmax abs ([2]; acidic solution pH 1.9, HCl): 585 nm
- Quantum yield [2, 6]: 15.29%
- λmax em [2, 6]: 624 nm
- Extinction coefficient [2, 7]: 14454 M⁻¹ cm⁻¹
- λmax abs [2, 7]: 643 nm
- Brightness ([2]; conjugate base, pH 12.1, NaOH): 43
- Stokes shift ([2]; conjugate base, pH 12.1, NaOH): 127 nm
- Quantum yield [2, 8]: 0.30%
- λmax em [2, 8]: 770 nm

- Extinction coefficient ([2]; acidic solution pH 1.9, HCl): 20399 M⁻¹ cm⁻¹
- Extinction coefficient [2, 7]: 17252 M⁻¹ cm⁻¹
- λmax abs [2, 7]: 632 nm
- Brightness ([2]; conjugate base, pH 12.1, NaOH): 29
- Stokes shift ([2]; conjugate base, pH 12.1, NaOH): 148 nm
- Quantum yield [2, 8]: 0.17%
- λmax em [2, 8]: 780 nm
SMILES: COC(=O)c1ccccc1-c1c2ccc(=[N+](C)C)cc-2oc2c1ccc1cccc(O)c12 [Compound 5, N-(1-hydroxy-7-(2-(methoxycarbonyl)phenyl)-10H-benzo[c]xanthen-10-ylidene)-N-N-dimethyl iminium bicarbonate]
- pH and solvent sensitivity of UV and fluorescence spectra [2]: exhibit pH as well as solvent sensitivity

- Extinction coefficient [2, 9]: 21742 M⁻¹ cm⁻¹
SMILES: COC(=O)c1ccccc1-c1c2ccc(=N)cc-2oc2c1ccc1cccc(OC)c12.O=C(O)O [Compound 4, 1-methoxy-7-(2-(methoxycarbonyl)phenyl)-10H-benzo[c]xanthen-10-iminium bicarbonate]
- pH and solvent sensitivity of UV and fluorescence spectra [2]: insensitive to variations in pH or solvent

- Extinction coefficient [2, 9]: 15,610 M^−1 · cm^−1
- pancreas penetration / specificity ([5]; normal pancreas, systemic administration): improved pancreas specificity
SMILES: COC(=O)c1ccccc1-c1c2ccc(=O)cc-2oc2c1ccc1cccc(OC)c12 [Compound 2]
- fluorophore uptake within 30 min of application (ranking) [3]: the lowest
- pH and solvent sensitivity of UV and fluorescence spectra [2]: not affected by either solvent changes or by solution pH values above 2
- site of intracellular localization [4]: within vesicular structures
- clearance route and rate ([5]; 100 nmol i.v. (MB 120 nmol)): significant renal clearance; also recorded: faster renal clearance than compounds 12 and 13
- organ accumulation (in vivo biodistribution) ([5]; 100 nmol i.v., 4 h distribution phase): preferentially accumulated in the pancreas, intestine and bladder

- pKa ([1]; Table 5): 4.36 +/− 0.04
- Stokes shift ([2]; basic solution pH 12.1, NaOH): 21 nm
- λmax em ([2]; basic solution pH 12.1, NaOH): 530 nm
- Extinction coefficient [2, 10]: 8834 M⁻¹ cm⁻¹
- λmax abs [2, 10]: 530 nm
- Extinction coefficient [2, 11]: 10132 M⁻¹ cm⁻¹
- λmax abs [2, 11]: 480 nm
- Stokes shift ([2]; conjugate acid, pH 1.9, HCl): 100 nm
- λmax em ([2]; conjugate acid, pH 1.9, HCl): 580 nm
SMILES: COC(=O)c1ccccc1-c1c2ccc(=O)cc-2oc2c1ccc1cccc(N(C)C)c12 [Compound 8, methyl 2-(1-(dimethylamino)-10-oxo-10H-benzo[c]xanthen-7-yl)benzoate]
- pH and solvent sensitivity of UV and fluorescence spectra [2]: not affected by either solvent changes or by solution pH values above 2

- Extinction coefficient [2, 10]: 5664 M⁻¹ cm⁻¹ and 8300 M⁻¹ cm⁻¹
- Extinction coefficient [2, 11]: 3996 M⁻¹ cm⁻¹
- λmax abs [2, 11]: 598 nm
- Stokes shift ([2]; conjugate acid, pH 1.9, HCl): 172 nm
- λmax em ([2]; conjugate acid, pH 1.9, HCl): 770 nm
SMILES: COC(=O)c1ccccc1-c1c2ccc(=O)cc-2oc2c1ccc1cccc(N)c12 [Compound 7, methyl 2-(1-amino-10-oxo-10H-benzo[c]xanthen-7-yl)benzoate]
- pH and solvent sensitivity of UV and fluorescence spectra [2]: not affected by either solvent changes or by solution pH values above 2

- Quantum yield [2, 12]: 0.18%
- λmax em [2, 12]: 760 nm
- Brightness [2, 13]: 25
- Stokes shift [2, 13]: 184 nm
- Extinction coefficient [2, 14]: 13872 M⁻¹ cm⁻¹
- λmax abs [2, 14]: 576 nm
SMILES: COC(=O)c1ccccc1-c1c2ccc(=N)cc-2oc2c1ccc1cccc(N)c12.Cl [Compound 9, 1-amino-7-(2-(methoxycarbonyl)phenyl)-10H-benzo[c]xanthen-10-iminium chloride]
- pH and solvent sensitivity of UV and fluorescence spectra [2]: not pH dependent, but were modestly solvent sensitive

- pKa ([1]; Table 1): 6.67 +/− 0.11
- Brightness ([2]; acidic solution pH 1.9, HCl): 226
- Stokes shift ([2]; acidic solution pH 1.9, HCl): 62 nm
- Extinction coefficient ([2]; acidic solution pH 1.9, HCl): 19787 M⁻¹ cm⁻¹
- λmax abs ([2]; acidic solution pH 1.9, HCl): 542 nm
- Quantum yield [2, 6]: 1.14%
- λmax em [2, 6]: 604 nm
- Extinction coefficient [2, 7]: 15589 M⁻¹ cm⁻¹
- λmax abs [2, 7]: 621 nm
- Brightness ([2]; conjugate base, pH 12.1, NaOH): 17
- Stokes shift ([2]; conjugate base, pH 12.1, NaOH): 149 nm
- Quantum yield [2, 8]: 0.11%
- λmax em [2, 8]: 770 nm
SMILES: COC(=O)c1ccccc1-c1c2ccc(=N)cc-2oc2c1ccc1cccc(O)c12.Cl [Compound 3, 1-hydroxy-7-(2-(methoxycarbonyl)phenyl)-10H-benzo[c]xanthen-10-iminium chloride]
- pH and solvent sensitivity of UV and fluorescence spectra [2]: exhibit pH as well as solvent sensitivity

- Quantum yield [2, 15]: 9.32%
- λmax em [2, 15]: 606 nm
- Brightness [2, 16]: 2094
- Stokes shift [2, 16]: 38 nm
- Extinction coefficient [2, 9]: 22470 M⁻¹ cm⁻¹
- λmax abs [2, 9]: 568 nm
SMILES: COC(=O)c1ccccc1-c1c2ccc(=[N+](C)C)cc-2oc2c1ccc1cccc(OC)c12.[Cl-] [Compound 6, N-(1-methoxy-7-(2-(methoxycarbonyl)phenyl)-10H-benzo[c]xanthen-10-ylidene)-N-methylmethanaminium chloride]
- pH and solvent sensitivity of UV and fluorescence spectra [2]: insensitive to variations in pH or solvent
